The text below walks through data of US20200239530A1, “COMPOUNDS AND METHODS OF MODULATING PROTEIN DEGRADATION” (Vividion Therapeutics, Inc., priority 2017, published 2020).

Common to all, as to assay: Cysteine liganding, probe competition
Format in all cases: binding

In assay [1] the target is T1, VPRBP Protein VPRBP (Homo sapiens, UniProt Q9Y4B6).
T1 construct: Cells were resuspended in cold PBS on ice and sonicated with a probe sonicator to achieve lysis; endogenous in cells
Summed up: (§1)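 Steps: sonicate cells in cold PBS; treat 5 mg/ml lysate with compound (25° C, 1 hr); add desthiobiotin iodoacetamide probe from a 10 mM stock (25° C, 1 hr); precipitate, reduce, alkylate, digest with trypsin; capture labelled peptides on streptavidin for analysis.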

Assay [2] has as its target T2, ALDH1L2 Mitochondrial 10-formyltetrahydrofolate dehydrogen (Homo sapiens, UniProt Q3SY69).
T2 construct: 200 μL of lysate containing 5 mg/ml proteome was treated with 2 μL of 100× compound stock; endogenous in cells
T2 sequence (Q3SY69 1-923): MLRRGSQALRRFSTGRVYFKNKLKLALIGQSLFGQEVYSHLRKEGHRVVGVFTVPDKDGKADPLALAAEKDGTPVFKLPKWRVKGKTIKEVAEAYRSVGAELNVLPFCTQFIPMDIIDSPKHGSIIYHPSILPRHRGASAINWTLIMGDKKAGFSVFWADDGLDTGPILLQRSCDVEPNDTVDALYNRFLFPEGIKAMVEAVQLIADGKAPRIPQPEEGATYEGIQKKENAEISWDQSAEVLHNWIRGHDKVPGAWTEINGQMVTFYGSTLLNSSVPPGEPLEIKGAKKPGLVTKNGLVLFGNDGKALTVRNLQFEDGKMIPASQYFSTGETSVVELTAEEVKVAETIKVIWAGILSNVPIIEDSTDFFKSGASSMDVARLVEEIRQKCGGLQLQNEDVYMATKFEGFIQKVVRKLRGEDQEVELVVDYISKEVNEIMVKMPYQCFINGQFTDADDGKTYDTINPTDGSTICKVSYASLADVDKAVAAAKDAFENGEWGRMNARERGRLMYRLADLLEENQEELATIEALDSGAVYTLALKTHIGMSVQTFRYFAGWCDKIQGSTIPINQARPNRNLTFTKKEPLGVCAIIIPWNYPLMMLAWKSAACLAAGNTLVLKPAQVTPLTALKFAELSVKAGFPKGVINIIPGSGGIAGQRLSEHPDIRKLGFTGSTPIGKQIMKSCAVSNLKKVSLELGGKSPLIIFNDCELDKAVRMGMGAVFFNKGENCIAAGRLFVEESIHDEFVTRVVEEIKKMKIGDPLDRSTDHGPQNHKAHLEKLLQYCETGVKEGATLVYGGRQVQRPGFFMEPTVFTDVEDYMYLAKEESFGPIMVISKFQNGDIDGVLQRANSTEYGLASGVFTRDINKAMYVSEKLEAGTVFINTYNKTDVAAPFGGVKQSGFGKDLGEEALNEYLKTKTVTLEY
In a few lines:
as §1

For assay [3], the target named is T3, FDFT1 Squalene synthase (Homo sapiens, UniProt P37268).
T3 construct: 200 μL of lysate containing 5 mg/ml proteome was treated with 2 μL of 100× compound stock; endogenous in cells
T3 sequence (P37268 1-417): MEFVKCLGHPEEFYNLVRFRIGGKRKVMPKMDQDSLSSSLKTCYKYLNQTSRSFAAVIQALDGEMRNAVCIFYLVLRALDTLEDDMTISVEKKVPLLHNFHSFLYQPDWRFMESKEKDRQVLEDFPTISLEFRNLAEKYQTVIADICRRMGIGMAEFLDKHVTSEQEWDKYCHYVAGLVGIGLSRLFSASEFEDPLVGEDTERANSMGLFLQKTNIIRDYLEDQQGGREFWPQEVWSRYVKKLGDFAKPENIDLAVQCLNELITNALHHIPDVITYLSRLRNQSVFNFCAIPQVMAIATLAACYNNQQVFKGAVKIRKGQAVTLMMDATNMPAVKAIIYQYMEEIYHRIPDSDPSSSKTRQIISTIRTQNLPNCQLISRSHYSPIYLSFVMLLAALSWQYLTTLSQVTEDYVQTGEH
Summed up: as §1

T1 sequence (Q9Y4B6 whole entry): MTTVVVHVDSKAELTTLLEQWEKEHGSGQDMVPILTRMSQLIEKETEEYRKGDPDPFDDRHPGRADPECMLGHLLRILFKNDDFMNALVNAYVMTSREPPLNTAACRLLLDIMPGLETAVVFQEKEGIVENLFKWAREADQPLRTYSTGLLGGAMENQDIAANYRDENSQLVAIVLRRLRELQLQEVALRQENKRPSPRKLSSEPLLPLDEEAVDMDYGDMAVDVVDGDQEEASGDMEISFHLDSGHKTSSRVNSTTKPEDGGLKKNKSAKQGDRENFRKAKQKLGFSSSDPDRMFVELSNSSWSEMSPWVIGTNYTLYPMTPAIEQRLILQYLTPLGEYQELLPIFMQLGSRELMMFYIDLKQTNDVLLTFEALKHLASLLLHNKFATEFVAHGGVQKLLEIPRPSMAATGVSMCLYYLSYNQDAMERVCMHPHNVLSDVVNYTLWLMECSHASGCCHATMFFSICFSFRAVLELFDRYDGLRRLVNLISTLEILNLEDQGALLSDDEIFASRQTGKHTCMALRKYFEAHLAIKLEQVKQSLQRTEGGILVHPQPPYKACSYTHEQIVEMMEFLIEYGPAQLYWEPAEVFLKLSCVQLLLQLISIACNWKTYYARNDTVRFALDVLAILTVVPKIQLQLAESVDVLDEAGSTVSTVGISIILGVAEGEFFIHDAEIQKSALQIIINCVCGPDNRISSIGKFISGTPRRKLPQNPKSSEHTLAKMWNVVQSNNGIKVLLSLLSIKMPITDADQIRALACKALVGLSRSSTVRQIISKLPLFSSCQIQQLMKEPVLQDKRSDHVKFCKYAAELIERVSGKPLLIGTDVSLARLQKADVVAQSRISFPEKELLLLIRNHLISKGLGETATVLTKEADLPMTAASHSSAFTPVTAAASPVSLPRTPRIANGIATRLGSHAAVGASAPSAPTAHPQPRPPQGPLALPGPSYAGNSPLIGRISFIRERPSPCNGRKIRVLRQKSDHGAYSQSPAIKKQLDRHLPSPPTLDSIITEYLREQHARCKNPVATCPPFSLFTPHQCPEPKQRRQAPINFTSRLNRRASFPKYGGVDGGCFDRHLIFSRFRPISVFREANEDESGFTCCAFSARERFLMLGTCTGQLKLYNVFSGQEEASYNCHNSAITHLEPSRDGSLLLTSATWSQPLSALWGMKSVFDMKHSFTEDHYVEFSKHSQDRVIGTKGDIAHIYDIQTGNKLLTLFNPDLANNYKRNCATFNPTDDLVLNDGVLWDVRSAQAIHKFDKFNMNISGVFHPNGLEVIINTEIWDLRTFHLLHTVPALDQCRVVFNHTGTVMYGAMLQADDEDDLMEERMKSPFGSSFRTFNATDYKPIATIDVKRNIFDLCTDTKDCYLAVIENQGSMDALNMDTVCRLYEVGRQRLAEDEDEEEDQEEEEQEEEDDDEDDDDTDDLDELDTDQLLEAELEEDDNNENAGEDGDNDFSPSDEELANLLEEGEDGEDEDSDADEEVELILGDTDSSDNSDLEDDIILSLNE

As to `COc1ccc2c(c1)CCCN2C(=O)CCl` [KB02], the Liganded result in assay [1] (VPRBP Res# 69, uniprot Q9Y4B6) is “YES”; in assay [1] (VPRBP Res# 967, uniprot Q9Y4B6), “YES”.
Turning to `O=C(CCl)Nc1cc(C(F)(F)F)cc(C(F)(F)F)c1` [KBO3], the Liganded entry in assay [2] (ALDH1L2 Res# 707, uniprot Q3SY69) was “YES”. Besides, in assay [2] (uniprot Q3SY69), the “100 Max” value came to 52.7, the 100 ave was determined as 52.7 and the 500 ave is reported as 77.55. Besides, the “500 Max” value in assay [2] (uniprot Q3SY69, in % (unit assumed)) was 77.55. For the same compound, in assay [3] (FDFT1 Res# 6, uniprot P37268), the Liganded result is on record as “YES”. In assay [3] (uniprot P37268), the “100 Max” value was determined as 59.08, the 100 ave stood at 37.7, the “500 Max” value worked out at 82.93 and the 500 ave is 82.93.
